Earlier results on 11 substances are cited in paper PMC7269146, “Jingzhaotoxin-X, a gating modifier of Kv4.2 and Kv4.3 potassium channels purified from the venom of the Chinese tarantula Chilobrachys jingzhao” (The Journal of Venomous Animals and Toxins Including …, 2020).

“Also recorded” adds a separate entry of the source. Read-outs that look alike come from different tables or passages of the source.

The subject of series [1] is Kv2 channels. The following applies: ref [40], [41]; cited from earlier work.
Series [2] deals with Kv2.1 channels. The following applies: cited from earlier work. The source says: (§1) Table 1. Characterization of the main peptides from C. jingzhao venom | column: Main pharmacological activity || The tarantula Chilobrachys jingzhao is one of the largest venomous spiders in the south of China. Peptide toxins purified from spider venom provide crucial approaches to investigating Kv4 channels. […] Jingzhaotoxin-XI ...

The test system of series [3] is Nav1.5 channels. The following applies: cited from earlier work. From the text: (§2) Table 1. Characterization of the main peptides from C. jingzhao venom | column: Main pharmacological activity
In series [4] the test system is rat cardiac Nav channels. The following applies: ref [10]; cited from earlier work.
From the text: as §2

Series [5] relates to Nav channels. The following applies: cited from earlier work.
From the text: as §2

In series [6] the test system is Kv4.3 or Kv4.2. To be noted: ref [14], [19]-[21]; cited from earlier work. From the text: The tarantula Chilobrachys jingzhao is one of the largest venomous spiders in the south of China. Peptide toxins purified from spider venom provide crucial approaches to investigating Kv4 channels. […] Jingzhaotoxin-XI ...
The subject of series [7] is Kv4 channels. The following applies: cited from earlier work.
From the text: as §1

The test system of series [8] is Kv4.1 channels. The following applies: ref [17]; cited from earlier work.
From the text: as §1

Series [9] has as its system Kv channel. The following applies: ref [18]; cited from earlier work.
From the text: as §2

Series [10] has as its system calcium channel. The following applies: ref [35]; cited from earlier work. The source says:
A total of 6 cysteine residues were highly conserved among each spider toxin at specific locations.

On to “HaTx1: gating-modifying toxin (ECRYLFGGCKTTSDCCKHLGCKFRDKYCAWDFTFS; UniProt P56852 50-84, looked up)”, for which the “suppression of Kv2 channels” value in series [1] is given as “suppressing Kv2 channels”. On to Jingzhaotoxin-I, for which the “Main pharmacological activity, Kv2.1” value in series [2] (ref [7]-[9]) is “Inhibits Nav1.5 channels inactivation and Kv2.1 channels”. Moreover, the “Main pharmacological activity, Nav1.5” value in series [3] (ref [7]-[9]) is “Inhibits Nav1.5 channels inactivation and Kv2.1 channels”. Consider Jingzhaotoxin-II, for which, in series [3] (ref [10]), the “Main pharmacological activity, Nav1.5” value was “Inhibits inactivation of both rat cardiac Nav channels and Nav1.5 channels”. Moreover, in [4], the “Main pharmacological activity, rat cardiac Nav channels” value was “Inhibits inactivation of both rat cardiac Nav channels and Nav1.5 channels”. On to Jingzhaotoxin-III, for which the “Main pharmacological activity, Kv2.1” value in series [2] (ref [11], [12]) was “Inhibits Nav1.5 and Kv2.1 channels”. In addition, the “Main pharmacological activity, Nav1.5” value in series [3] (ref [11], [12]) was “Inhibits Nav1.5 and Kv2.1 channels”. Jingzhaotoxin-IV: the “Main pharmacological activity, Nav channels” value in [5] (ref [13]) is “Modifies the activation and inactivation of Nav channels”.

With Jingzhaotoxin-V, in series [6], the “inhibition of Kv4.3 or Kv4.2” value is reported as “inhibit either Kv4.3 or Kv4.2, or both of these channels”. The “Main pharmacological activity, Kv4 channels” value in series [7] is “Inhibits both Nav and Kv4 channels”. Besides, in [5], the “Main pharmacological activity, Nav channels” value was “Inhibits both Nav and Kv4 channels”.

As to Jingzhaotoxin-XI, in [2] (ref [15], [16]), the “Main pharmacological activity, Kv2.1” value is “Inhibits Nav1.5 inactivation and Kv2.1 channels”. For the same substance, in [3] (ref [15], [16]), the “Main pharmacological activity, Nav1.5” value was “Inhibits Nav1.5 inactivation and Kv2.1 channels”. Consider Jingzhaotoxin-XII, for which, in [8], the “Main pharmacological activity, Kv4.1” value was “specific Kv4.1 channel-gating modifier; also recorded: Inhibits Kv4.1 channels”. On to Jingzhaotoxin-XIII, for which the “Main pharmacological activity, Kv channel” value in series [9] is “Modifies Kv channel gating”. In the case of “SNX-482 (GVDKAGCRYMFGGCSVNDDCCPRLGCHSLFSYCAWDLTFSD; UniProt P56854 1-41, looked up)”, in series [6], the “inhibition of Kv4.3 or Kv4.2” value is “inhibit either Kv4.3 or Kv4.2, or both of these channels”. For ω-grammotoxin SIA, the “activity on calcium channel” value in series [10] was “blocker of calcium channel”.
